Data reported in patent US11420975B2, “Substituted imidazo[1,5-a]pyrazines as Bruton's tyrosine kinase inhibitors” (TRANSTHERA SCIENCES (NANJING), INC., priority 2018, dated 2022).

Assays:
OCI-LY10 xenograft tumor = OCI-LY10 xenograft tumor model; format: in vivo; settings: intragastric 25 mg/kg once/day, day 28
Method: (§1) CB17/SCID female mice with serious immune deficiency were purchased from Beijing Vital River Laboratory Animal Technology Co., Ltd. and bred in SPF animal houses. Human OCI-LY10 cells (Shanghai Junrui-UFBN0102) were cultured in an RPMI 1640 culture medium containing 10% fetal bovine serum, 100 U/mL penicillin and 100 μg/mL streptomycin through monolayer culture in vitro in an incubator (37° C., 5% C02). Routine treatment was performed twice a week for passaging. At a cell saturation of 80%-90% and a required number, the cells were harvested and counted. 0.2 mL (1×10^7) of OCI-LY10 cells (together with matrigel at a volume ratio of 1:1) were subcutaneously inoculated into the right back of each mouse, and the tumor size could be measured about one week after inoculation. Tumor size was measured using a vernier caliper and tumor volume was calculated using the following formula: tumor volume=(length×width^2)/2.

OCI-LY10 = test: In vitro tumor cell proliferation inhibition, OCI-LY10 (CellTiter-Glo); format: cell-based; settings: Homo sapiens; OCI-LY10 cells, 72 h
Method: (§2) (1) Method • The tumor cell line (TMD-8/OCY-LY10) was suspended in RPMI1640+FBS10% and cultured in an incubator (37° C., 5% CO2). Cells were passaged periodically, and cells at logarithmic growth phase were collected for plating. • Cell staining was performed with trypan blue and viable cells were counted. • Cell concentration was adjusted to 7000 cells/well with medium. • 90 μL of cell suspension was added to a 96-well plate and cell-free culture medium was added to the blank control wells. • Cells in the 96-well plate were incubated overnight in an incubator (37° C., 5% CO2, 100% relative humidity). • Preparation of 400× compound storage plates: test compounds and reference drug were each dissolved in DMSO and 3× diluted from the highest concentration (400 μM) to the lowest concentration (0.61 μM). • Preparation of 10× compound working solutions: 78 μL of cell culture medium was added to a V-bottom 96-well plate, and 2 μL of the compound was pipetted from the 400× compound storage plate into the 96-well plate. Vehicle control wells and blank control wells were added with 2 μL of DMSO. […] Inhibition rates of compounds at different concentrations were calculated in Excel, followed by plotting the inhibition curves and calculating IC50 values with GraphPad Prism.

TMD-8 = test: In vitro tumor cell proliferation inhibition, TMD-8 (CellTiter-Glo); format: cell-based; settings: Homo sapiens, TMD8; TMD-8 cells, 72 h
Method: as §2

TMD-8 xenograft tumor = TMD-8 xenograft tumor model; format: in vivo; settings: intragastric 25 mg/kg once/day
Method: as §1, with “TMD-8” for “OCI-LY10”, “Junrui-UFBN1682)” for “Junrui-UFBN0102)”

BTK(wt) = BTK(wt) (Homo sapiens (Human), UniProt Q06187); test: In vitro inhibitory activity against BTK(wt) enzyme (33P-ATP filter binding); format: biochemical; settings: class symbols
BTK(wt), sequence (Q06187 whole entry): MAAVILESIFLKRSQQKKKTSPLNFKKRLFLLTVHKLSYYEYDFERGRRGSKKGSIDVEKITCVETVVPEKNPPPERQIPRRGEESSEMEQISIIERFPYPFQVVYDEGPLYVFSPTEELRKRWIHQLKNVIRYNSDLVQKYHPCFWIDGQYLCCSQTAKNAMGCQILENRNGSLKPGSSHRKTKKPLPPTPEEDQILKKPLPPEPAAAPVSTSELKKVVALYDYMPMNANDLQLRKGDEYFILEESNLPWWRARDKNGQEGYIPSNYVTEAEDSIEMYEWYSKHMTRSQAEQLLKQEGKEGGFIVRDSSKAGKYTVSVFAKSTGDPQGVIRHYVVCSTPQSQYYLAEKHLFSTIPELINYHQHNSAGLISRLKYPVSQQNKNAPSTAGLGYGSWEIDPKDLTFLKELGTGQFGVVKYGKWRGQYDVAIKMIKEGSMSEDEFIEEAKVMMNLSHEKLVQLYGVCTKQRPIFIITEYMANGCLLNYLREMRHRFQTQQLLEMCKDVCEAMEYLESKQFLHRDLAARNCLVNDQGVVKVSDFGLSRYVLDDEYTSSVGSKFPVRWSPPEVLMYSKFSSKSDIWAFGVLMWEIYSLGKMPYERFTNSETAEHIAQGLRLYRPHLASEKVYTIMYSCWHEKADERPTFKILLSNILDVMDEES
Method: (§3) The substrate solution was prepared by adding the substrate poly(Glu, Tyr) sodium salt (Sigma Aldrich, St. Louis, Mo.) to the substrate reaction buffer (20 mM Hepes (pH 7.5), 10 mM MgCl2, 1 mM EGTA, 0.02% Brij35, 0.02 mg/mL BSA, 0.1 mM Na3VO4, 2 mM DTT and 1% DMSO) (final substrate concentration in the reaction solution was 0.2 μM). Test compound was formulated into stock solutions at 10 mM concentration with 100% DMSO, and 3-fold serial dilution for 10 doses was performed in a 384-well cyclic olefin copolymer LDV microplate. […] Test compound in 100% DMSO was then added to the kinase reaction mixture by acoustic liquid transfer technology (Echo 550; nanoliter range) (Labcyte Inc, Sunnyvale, Calif.) and incubated for 20 min at room temperature. 33P-ATP (specific activity 10 μCi/μL) was added to the reaction mixture to initiate the reaction, followed by incubation at room temperature for 2 h. A small portion of the reaction mixture was dropped onto P-81 ion exchange filter paper (Whatman). After washing the unbound phosphate from the filter paper with 0.75% phosphate buffer (three times) and drying, the remaining radioactivity on the filter paper was measured. The kinase activity was expressed as the percentage of the remaining kinase activity in the test sample to the kinase activity in the vehicle (dimethyl sulfoxide) blank control. IC50 values were calculated by curve fitting the data obtained using Prism (GraphPad Software).

BTK(C481S) = BTK(C481S) (Homo sapiens (Human), UniProt Q06187, C481S); test: In vitro inhibitory activity against BTK(C481S) enzyme (33P-ATP filter binding); format: biochemical; settings: class symbols; read-out: IC50 BTK(C48IS)
BTK(C481S), sequence (Q06187 whole entry C481S): as the sequence (Q06187 whole entry) above, with C481S counted along it
Method: as §3

| SMILES | TGI (OCI-LY10 xenograft tumor) | IC50 (OCI-LY10) | IC50 (TMD-8) | TGI (TMD-8 xenograft tumor) | IC50 (BTK(wt)) | IC50 (BTK(C481S)) |
| --- | --- | --- | --- | --- | --- | --- |
| C=CC(=O)N1CCC[C@@H](n2nc(-c3ccc(Oc4ccccc4)cc3)c3c(N)ncnc32)C1 [Ibrutinib, ibrutinib, reference compound] | 94% | 1.7 nM | 0.4 nM | 90% | – | – |
| Nc1nccn2c(C34CCC(NC(=O)c5nccs5)(CC3)C4)nc(-c3ccc(C(=O)Nc4cc(C(F)(F)F)ccn4)cc3)c12 [Compound A-10-22, N-(4-(8-amino-1-(4-((4-(trifluoromethyl)pyridin-2-yl)carbamoyl)phenyl)imidazo[1,5-a]pyrazin-3-yl)bicyclo[2.2.1]heptan-1-yl)thiazole-2-carboxamide] | – | – | – | – | 1 to 10 nM | 1 to 10 nM |
| COc1ccc(F)cc1C(=O)NCc1ccc(-c2nc(C34CCC(NC(=O)C(C)(C)O)(CC3)C4)n3ccnc(N)c23)cc1 [Compound A-16-1, N-(4-(8-amino-3-(4-(2-hydroxy-2-methylpropanamido)bicyclo[2.2.1]heptan-1-yl)imidazo[1,5-a]pyrazin-1-yl)benzyl)-5-fluoro-2-methoxybenzamide] | – | – | – | – | 10 to 50 nM | 1 to 10 nM |
| CC(C)(O)C(=O)NC12CCC(c3nc(-c4ccc(C(=O)Nc5cc(C(F)(F)F)ccn5)cc4)c4c(N)nccn34)(CC1)C2 [Compound A-10-6, 4-(8-amino-3-(4-(2-hydroxy-2-methylpropanamido)bicyclo[2.2.1]heptan-1-yl)imidazo[1,5-a]pyrazin-1-yl)-N-(4-(trifluoromethyl)pyridin-2-yl)benzamide] | – | – | – | – | 1 to 10 nM | ≤ 0.1 nM |
| COCCC(=O)NC12CCC(c3nc(-c4ccc(C(=O)Nc5cc(C(F)(F)F)ccn5)cc4)c4c(N)nccn34)(CC1)C2 [Compound A-10-8, 4-(8-amino-3-(4-(3-methoxypropanamido)bicyclo[2.2.1]heptan-1-yl)imidazo[1,5-a]pyrazin-1-yl)-N-(4-(trifluoromethyl)pyridin-2-yl)benzamide] | – | – | – | – | 1 to 10 nM | ≤ 0.1 nM |
| Nc1ncnc2c1c(-c1ccc(C(=O)Nc3cc(C(F)(F)F)ccn3)cc1)cn2C12CCC(NC(=O)CN3CCOCC3)(CC1)C2 [Compound B-6-5, 4-(4-amino-7-(4-(2-morpholinoacetamido)bicyclo[2.2.1]heptan-1-yl)-7H-pyrrolo[2,3-d]pyrimidin-5-yl)-N-(4-(trifluoromethyl)pyridin-2-yl)benzamide] | – | – | – | – | 1 to 10 nM | 1 to 10 nM |
| CC#CC(=O)NC12CCC(n3c(=O)n(-c4ccc(C(=O)Nc5cc(C(F)(F)F)ccn5)cc4)c4c(N)ncnc43)(CC1)C2 [Compound C-7-1, 4-(6-amino-9-(4-(but-2-ynamido)bicyclo[2.2.1]heptan-1-yl)-8-oxo-8,9-dihydro-7H-purin-7-yl)-N-(4-(trifluoromethyl)pyridin-2-yl)benzamide] | – | – | – | – | 1 to 10 nM | 1 to 10 nM |
| CC#CC(=O)NC12CCC(c3nc(-c4ccc(C(=O)Nc5cc(C(F)(F)F)ccn5)cc4F)c4c(N)nccn34)(CC1)C2 [Compound A-7-9, 4-(8-amino-3-(4-(but-2-ynamido)bicyclo[2.2.1]heptan-1-yl)imidazo[1,5-a]pyrazin-1-yl)-3-fluoro-N-(4-(trifluoromethyl)pyridin-2-yl)benzamide] | – | – | – | – | 1 to 10 nM | 0.1 to 1 nM |
| Nc1nccn2c(C34CCC(NC(=O)c5ccco5)(CC3)C4)nc(-c3ccc(C(=O)Nc4cc(C(F)(F)F)ccn4)cc3)c12 [Compound A-10-21, N-(4-(8-amino-1-(4-((4-(trifluoromethyl)pyridin-2-yl)carbamoyl)phenyl)imidazo[1,5-a]pyrazin-3-yl)bicyclo[2.2.1]heptan-1-yl)furan-2-carboxamide] | – | – | – | – | 1 to 10 nM | 1 to 10 nM |
| CC#CC(=O)NC12CCC(c3nc(-c4ccc(Oc5ccccc5)cc4)c4c(N)nccn34)(CC1)C2 [Compound A-7-14, N-(4-(8-amino-1-(4-phenoxyphenyl)imidazo[1,5-a]pyrazin-3-yl)bicyclo[2.2.1]heptan-1-yl)but-2-ynamide] | – | – | – | – | 1 to 10 nM | 0.1 to 1 nM |
| CC#CC(=O)NC12CCC(c3nc(-c4ccc(C(=O)Nc5cc(C#N)ccn5)cc4)c4c(N)nccn34)(CC1)C2 [Compound A-7-5, 4-(8-amino-3-(4-(but-2-ynamido)bicyclo[2.2.1]heptan-1-yl)imidazo[1,5-a]pyrazin-1-yl)-N-(4-cyanopyridin-2-yl)benzamide] | – | – | – | – | 1 to 10 nM | 0.1 to 1 nM |
| CC1(C(=O)NC23CCC(c4nc(-c5ccc(Oc6ccccc6)cc5)c5c(N)nccn45)(CC2)C3)COC1 [Compound A-13-3, N-(4-(8-amino-1-(4-phenoxyphenyl)imidazo[1,5-a]pyrazin-3-yl)bicyclo[2.2.1]heptan-1-yl)-3-methyloxetane-3-carboxamide] | – | – | – | – | 1 to 10 nM | 1 to 10 nM |
| N#CCC(=O)NC12CCC(c3nc(-c4ccc(C(=O)Nc5cc(C(F)(F)F)ccn5)cc4)c4c(N)nccn34)(CC1)C2 [Compound A-10-13, 4-(8-amino-3-(4-(2-cyanoacetamido)bicyclo[2.2.1]heptan-1-yl)imidazo[1,5-a]pyrazin-1-yl)-N-(4-(trifluoromethyl)pyridin-2-yl)benzamide] | – | – | – | – | 1 to 10 nM | ≤ 0.1 nM |
| COc1ccc(F)cc1C(=O)NCc1ccc(-c2nc(C34CCC(NC(=O)CN5CCOCC5)(CC3)C4)n3ccnc(N)c23)cc1 [Compound A-16-4, N-(4-(8-amino-3-(4-(2-morpholinoacetamido)bicyclo[2.2.1]heptan-1-yl)imidazo[1,5-a]pyrazin-1-yl)benzyl)-5-fluoro-2-methoxybenzamide] | – | – | – | – | 1 to 10 nM | 1 to 10 nM |
| N#CC1(C(=O)NC23CCC(c4nc(-c5ccc(C(=O)Nc6cc(C(F)(F)F)ccn6)cc5)c5c(N)nccn45)(CC2)C3)CC1 [Compound A-10-12, 4-(8-amino-3-(4-(1-cyanocyclopropanecarboxamido)bicyclo[2.2.1]heptan-1-yl)imidazo[1,5-a]pyrazin-1-yl)-N-(4-(trifluoromethyl)pyridin-2-yl)benzamide] | – | – | – | – | 1 to 10 nM | 0.1 to 1 nM |
| COCC(=O)NC12CCC(c3nc(-c4ccc(C(=O)Nc5cc(C(F)(F)F)ccn5)cc4)c4c(N)nccn34)(CC1)C2 [Compound A-10-7, 4-(8-amino-3-(4-(2-methoxyacetamido)bicyclo[2.2.1]heptan-1-yl)imidazo[1,5-a]pyrazin-1-yl)-N-(4-(trifluoromethyl)pyridin-2-yl)benzamide] | – | – | – | – | 1 to 10 nM | 0.1 to 1 nM |
